These results are taken from patent US5395932A, “2,3-,4-,5-,6-,7-,8-,9- and/or 10-substituted dibenzoxazepine compounds, pharmaceutical compositions and methods of use” (G. D. Searle & Co., priority 1993, dated 1995).

A short description of experiment [1]: Writhing Assay (PBQ-induced writhing, analgesia). The format is in vivo, Charles River male albino mice. The note with it: Mus musculus, po, intragastric; for responders at 30 mg/kg: 30 mg per kilogram, 25 minutes before PBQ i.p., writhes ≤ one-half median of saline control, read-out: WRITHING ASSAY, number of mice out of 9 or 10 in which test compound produced analgesia (converted). As for the experimental part:
The phrase "ED50 dose" as used herein means that dose of a compound or drug which produced a biological effect, such as producing analgesia, in 50% of the animals to which the compound or drug was administered. The Writhing Assay is one of the most widely-used experimental procedures for measuring the analgesic activity of different narcotic and nonnarcotic analgesic agents, and involves the continuous, chemically-induced pain of visceral origin to an animal, such as a mouse or rat. [Gyires et al., Arch. int. Pharmacodyn, 267, 131-140 (1984); […] al., Fed. Proc., 15, 494 (1956); Koster et al., Fed. Proc., 18, 412 (1959); and Witken et al., J. Pharmacol. exp. Ther., 133, 400-408 (1961).] Chemicals which may be used to induce this pain include phenylbenzoquinone (PBQ) and acetic acid. As a result of the chemical irritation to the animal, a characteristic stretching and writhing of the animal (dorsiflexion of the animal's back, extension of its hindlimbs and the strong contraction of its abdominal musculature) will generally occur. […] Drugs which reduce the number of writhes of the animal appear to restore the normal nociceptive threshold of the animal. […] Charles River male albino mice, weighing 20 to 30 grams were used in this assay. Twenty-five minutes after intragastric administration to nine or ten mice of 30 mg per kilogram of body weight of a compound of the present invention ("test compound"), […] per 10 g of body weight of a 0.025% w/v solution of PBQ was injected intraperitoneally into each mouse. Ten mice which were given saline in place of a test compound of the invention were used as a control group. Five minutes later, each mouse was individually placed into a glass beaker for observation, and the number of writhes occurring during the following ten-minute period was counted. A test compound was considered to have produced analgesia in a mouse if, in accordance with the conditions set forth above, and under the test criteria employed for this assay, after the administration of 30 mg per kilogram of body weight of a compound of the present invention to the mouse, the number of writhes elicited by a mouse injected with PBQ was equal to, or less than, one-half the median number of writhes recorded for the saline-treated control group of mice that day, as described by Taber in "Predictive Value of Analgesic Assays in Mice and Rats," Advances in Biochemical Psychopharmacology, 8, 191 (1974). The results for the particular compounds of the present invention analyzed in this assay, and discussed in the examples identified below which correspond thereto, are presented in Table 1 hereinbelow as fractions under the heading "WRITHING ASSAY." The fractions indicate the number of mice out of nine or ten in which a test compound produced analgesia. The standard initial screening dose of a test compound employed in this assay was 30 milligrams per […] of body weight. If this initial screening dose of the test compound produced analgesia in seven of nine or ten mice, then the effect of additional doses of the test compound on the writhing response was evaluated, and then the ED50 dose was generally calculated. (The slopes of the dose-response curves for all test compounds analyzed were compared as described by Tallarida and Murray, Manual of Pharmacologic Calculations, Page 11 (Springer Verlag, New York, 1981)). All ED50 doses calculated are also presented below as whole numbers in Table 1, under the heading "WRITHING ASSAY."

For experiment [2], the target named is T1, prostaglandin E2-induced contractions of segments of guinea pig ileum (Cavia porcellus, UniProt A0A286XHJ6).
T1 construct: Segments of ileum about 2 cm long were then cut and mounted in a 10-mL tissue bath; from tissue; host or cells: guinea pig ileum segments
T1 sequence (A0A286XHJ6 1-405): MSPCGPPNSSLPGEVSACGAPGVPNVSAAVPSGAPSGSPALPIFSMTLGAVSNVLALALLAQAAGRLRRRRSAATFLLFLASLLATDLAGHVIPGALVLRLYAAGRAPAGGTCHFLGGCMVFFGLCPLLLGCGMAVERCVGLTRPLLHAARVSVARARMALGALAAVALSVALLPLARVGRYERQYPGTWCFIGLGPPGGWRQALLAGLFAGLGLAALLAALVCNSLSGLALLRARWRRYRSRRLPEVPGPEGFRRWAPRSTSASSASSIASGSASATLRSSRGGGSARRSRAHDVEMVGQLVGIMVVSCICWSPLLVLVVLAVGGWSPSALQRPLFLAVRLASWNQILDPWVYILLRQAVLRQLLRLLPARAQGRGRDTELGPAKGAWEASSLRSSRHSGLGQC
The experiment in a line: Prostaglandin (PGE) Antagonism Assay (guinea pig ileum). The format is cell-based, male albino guinea pigs. The settings on record: estimated from 3 micromolar (dose ratio ≥2) or Schild plot (dose ratio ≥5); 37° C.; read-out: PGE ANTAGONISM IN GUINEA PIG ILEUM (pA2) (converted). The text has this:
The phrase "EC50 concentration" as used herein means that concentration of a compound or drug which is necessary to elicit a 50% maximal biological response and, thus, which is necessary to elicit a 50% reduction in the contractions of guinea pig ileum segments in a prostaglandin antagonism assay. (b) Prostaglandin (PGE) Antagonism Assay In order to determine the effectiveness of several of the compounds of the present invention ("test compounds") as prostaglandin E2 antagonists,a prostaglandin antagonism assay was conducted, as described below, to determine the ability of these compounds to inhibit prostaglandin E2 -induced contractions of segments of guinea pig ileum. […] Male albino guinea pigs weighing 200 to 500 grams were sacrificed by cervical dislocation. The ilea were then quickly removed from the guinea pigs and placed in a modified Tyrode solution, a solution which is known to those skilled in the art, containing one-half of the usual amount of magnesium ions. Segments of ileum about 2 cm long were then cut and mounted in a 10-mL tissue bath containing the modified Tyrode solution. The solution was maintained at 37° C. and aerated with a gaseous mixture of 95% oxygen and 5% carbon dioxide. Data for a control prostaglandin E2 dose response curve plotting concentration of prostaglandin E2 versus the intensity of contractions, detected isotonically, was then obtained by experimentally adjusting the dose of the prostaglandin E2 being injected into the tissue bath, in a manner known by those of skill in the art. Solutions or suspensions containing an initial concentration (3 micromolar) of a test compound in modified Tyrode solution ("test solutions/suspensions") were then separately substituted for the control bath solution. Each test solution/suspension was then kept in constant contact with the ileum tissue, except for brief periods to drain the bath in preparation for rinsing with fresh test solution/suspension. A second prostaglandin E2 dose response curve was then generated for prostaglandin E2 in the presence of a test compound. A dose ratio of EC50 doses was then calculated from the results of each test in a manner known by those of skill in the art. A test compound was determined to be "active" if the initial concentration used yielded at least a two-fold shift (dose ratio greater than or equal to 2) in the dose response curve for prostaglandin E2. […] The compounds of the present invention which were tested in this assay, and for which results are presented in Table 1, correspond to the particular examples specified in Table 1.

The structures appear in SMILES notation. Counter-ions that a name gives are not always drawn.

Take `O=C(NCCc1ccccn1)c1coc(CN2Cc3ccccc3Oc3ccc(Cl)cc32)n1` [Example 9, 2-[(8-chlorodibenz[b,f][1,4]oxazepin-10(11H)yl)methyl]-N-[2-(2-pyridinyl)ethyl]-4-oxazolecarboxamide, hydrochloride]: the responders at 30 mg/kg in experiment [1] was 70%. Also, the Kb in experiment [2] was 200 nM.

Regarding `O=C(NCc1cccnc1)c1csc(N2Cc3ccccc3Oc3ccc(Cl)cc32)n1` [Example 37, 2-(8-Chlorodibenz[b,f][1,4]oxazepin-10(11H)-yl)-N-(3-pyridinylmethyl)-4-thiazolecarboxamide, hydrochloride], the responders at 30 mg/kg in experiment [1] was 10%. In experiment [2], the Kb is 1000 nM. Regarding `O=C(OCc1ccncc1)c1coc(CN2Cc3ccccc3Oc3ccc(Cl)cc32)n1` [Example 12, 4-pyridinylmethyl 2-[(8-chlorodibenz[b,f][1,4]oxazepin-10(11H) -yl)methyl]-4-oxazole carboxylate, hydrochloride], the responders at 30 mg/kg in experiment [1] is 40%. Still for that read-out and setting: then `CN(C)CCNC(=O)c1csc(N2Cc3ccccc3Oc3ccc(Cl)cc32)n1` [Example 27, 2-(8-Chlorodibenz[b,f][1,4]Oxazepin-10(11H)-yl)-N-[2-(dimethylamino)ethyl]-4-thiazolecarboxamide, monohydrochloride], with 60%. Take `O=C(Nc1cccnc1)c1csc(N2Cc3ccccc3Oc3ccc(Cl)cc32)n1` [Example 29, 2-(8-Chlorodibenz[b,f][1,4]oxazepin-10(11H)-yl)-N-3-pyridinyl-4-thiazolecarboxamide, hydrochloride]: in experiment [1], the responders at 30 mg/kg is 60%. Moreover, the Kb in experiment [2] was 1000 nM.

Turning to `Cc1nc(CN2Cc3ccccc3Oc3ccc(Cl)cc32)cs1` [Example 23, 8-chloro-10,11-dihydro-10-[(2-methyl-4-thiazolyl)methyl]dibenz[b,f][1,4]oxazepine hydrochloride], the responders at 30 mg/kg in experiment [1] was 11.1%. Consider `O=C(NCc1ccncc1)c1coc(CN2Cc3ccccc3Oc3ccc(Cl)cc32)n1` [Example 11, 2-[(8-chlorodibenz[b,f][1,4]oxazepin-10(11H)yl)methyl]-N-(4-pyridinylmethyl)-4-oxazolecarboxamide, monohydrochloride], for which the responders at 30 mg/kg in experiment [1] was 90%. In experiment [2], the Kb was 25.1 nM. With `CCOC(=O)c1coc(CN2Cc3ccccc3Oc3ccc(Cl)cc32)n1` [Example 7, Ethyl 2-[(8-chlorodibenz[b,f][1,4]oxazepin-10(11H)yl)methyl]-4-oxazole carboxylate], the responders at 30 mg/kg in experiment [1] was 90%. For the same compound, the Kb in experiment [2] is 794 nM.

As for `O=C(Nc1ccncc1)c1coc(CN2Cc3ccccc3Oc3ccc(Cl)cc32)n1` [Example 17, 2-[(8-chlorodibenz[b,f][1,4]oxazepin-10(11H)yl)methyl]-N-4-pyridinyl-4-oxazolecarboxamide, hydrochloride], the Kb in experiment [2] is 398 nM. On to `O=C(Nc1ccccn1)c1csc(N2Cc3ccccc3Oc3ccc(Cl)cc32)n1` [Example 30, 2-(8-Chlorodibenz[b,f][1,4]oxazepin-10(11H)-yl)-N-2-pyridinyl-4-thiazolecarboxamide, hydrochloride], for which, in experiment [1], the responders at 30 mg/kg is 40%.

As for `CCOC(=O)c1csc(CN2Cc3ccccc3Oc3ccc(Cl)cc32)n1` [Example 19, ethyl 2-[(8-chlorodibenz[b,f][1,4]oxazepine-10(11H)yl)methyl]-4-thiazolecarboxylate], the responders at 30 mg/kg in experiment [1] was 10%. For the same compound, the Kb in experiment [2] was 1580 nM. Taken in the same sequence, the figures for `O=C(NCc1ccccn1)c1coc(CN2Cc3ccccc3Oc3ccc(Cl)cc32)n1` [Example 10, 2-[(8-chlorodibenz[b,f][1,4]oxazepin-10(11H)yl)methyl]-N-(2-pyridinylmethyl)-4-oxazolecarboxamide, monohydrochloride] were 20% and 31.6 nM. As for `O=C(NCc1cccs1)c1coc(CN2Cc3ccccc3Oc3ccc(Cl)cc32)n1` [Example 15, 2-[(8-chlorodibenz[b,f][1,4]oxazepin-10(11H)yl)methyl]-N-(2-thienylmethyl)-4-oxazolecarboxamide], the responders at 30 mg/kg in experiment [1] was 70%. In experiment [2], the Kb was 158 nM.

Take `O=C(O)c1csc(CN2Cc3ccccc3Oc3ccc(Cl)cc32)n1` [Example 20, 2-[(8-chlorodibenz[b,f][1,4]oxazepin-10(11H)yl)methyl]-4-thiazolecarboxylicacid, sodium salt]: in experiment [1], the responders at 30 mg/kg is 50%. Besides, the Kb in experiment [2] was 7.94 nM.

`OC(/C=C\c1ccncc1)c1csc(N2Cc3ccccc3Oc3ccc(Cl)cc32)n1` (stereo not shown) [Example 34A, 2-(8-Chlorodibenz[b,f][1,4]oxazepin-10(11H)-yl)-a-[2Z(4-pyridinyl)ethenyl]-4-thiazolemethanol, hydrochloride] yielded an ED50 in experiment [1] (mice, PBQ) of 9.7 mg/kg. In addition, the Kb in experiment [2] was 794 nM. For the compound `O=C(NCCc1ccncc1)c1coc(CN2Cc3ccccc3Oc3ccc(Cl)cc32)n1` [Example 14, 2-[(8-chlorodibenz[b,f][1,4]oxazepin-10(11H)yl)methyl]-N-[2-(4-pyridinyl)ethyl]-4-oxazolecarboxamide, hydrochloride, acetate], the responders at 30 mg/kg in experiment [1] was 60%. In addition, the Kb in experiment [2] is 15.8 nM. As to `O=C(Nc1cncnc1)c1coc(CN2Cc3ccccc3Oc3ccc(Cl)cc32)n1` [Example 16, 2-[(8-chlorodibenz[b,f][1,4]oxazepin-10(11H)yl)methyl]-N-5-pyrimidinyl-4-oxazolecarboxamide], in experiment [2], the Kb is 3160 nM.
